Our source for the TGI values is PubChem BioAssay (NCI).

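Five concentrations, 48 hours, 96-well plates. TGI: concentration producing complete growth inhibition.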 Bounds are passed on as bounds.

The test system of one test is HOP-62 NSCLC. Put plainly: NCI-60 cell line screen, 48 h.
In the case of `COc1ccc(Nc2c(C#N)c3n(c4ccccc24)c2ccccc2[n+]3C)cc1OC`, the TGI came out at 23.6 µM.

In the next test the test system is HOP-92 NSCLC. Put plainly: NCI-60 cell line screen, 48 h.
For `CC(=O)OCC1OC(N2C(=O)/C(=C\c3ccc(Cl)cc3)C(N)=Nc3ccccc32)C(OC(C)=O)C(OC(C)=O)C1OC(C)=O` (stereo unspecified), the TGI was found to be 45.2 µM.

Consider `O=C(/C(=C(/Br)I)c1ccccc1)c1ccccc1`, for which the TGI stood at 35.6 µM.

Consider `COc1ncc(C=C(C#N)C#N)c(OC)n1`, for which the TGI was above 100 µM.

In the case of `COc1ccc(Nc2c(C#N)c3n(c4ccccc24)c2ccccc2[n+]3C)cc1OC`, the TGI was above 34.2 µM.

The subject of a further test is HS 578T breast. Put plainly: NCI-60 cell line screen, 48 h.
For `CC(=O)OCC1OC(N2C(=O)/C(=C\c3ccc(Cl)cc3)C(N)=Nc3ccccc32)C(OC(C)=O)C(OC(C)=O)C1OC(C)=O` (stereo unspecified), the TGI was above 100 µM.

In turn, `O=C(/C(=C(/Br)I)c1ccccc1)c1ccccc1` gave a TGI above 100 µM.

Compound `COc1ncc(C=C(C#N)C#N)c(OC)n1` registered a TGI above 100 µM.

`COc1ccc(Nc2c(C#N)c3n(c4ccccc24)c2ccccc2[n+]3C)cc1OC` came in with a TGI of 11.3 µM.

The subject of a further test is HT29 colon. Put plainly: NCI-60 cell line screen, 48 h.
In turn, `CC(=O)OCC1OC(N2C(=O)/C(=C\c3ccc(Cl)cc3)C(N)=Nc3ccccc32)C(OC(C)=O)C(OC(C)=O)C1OC(C)=O` (stereo unspecified) registered a TGI of 70.2 µM.

Consider `O=C(/C(=C(/Br)I)c1ccccc1)c1ccccc1`, for which the TGI was 36.1 µM.

`COc1ncc(C=C(C#N)C#N)c(OC)n1` came in with a TGI above 100 µM.

In turn, `COc1ccc(Nc2c(C#N)c3n(c4ccccc24)c2ccccc2[n+]3C)cc1OC` yielded a TGI of 23 µM.

Another test deals with IGROV1 ovarian. Put plainly: NCI-60 cell line screen, 48 h.
Compound `CC(=O)OCC1OC(N2C(=O)/C(=C\c3ccc(Cl)cc3)C(N)=Nc3ccccc32)C(OC(C)=O)C(OC(C)=O)C1OC(C)=O` (stereo unspecified) returned a TGI of 63.4 µM.

As for `O=C(/C(=C(/Br)I)c1ccccc1)c1ccccc1`, the TGI was above 100 µM.

Consider `COc1ncc(C=C(C#N)C#N)c(OC)n1`, for which the TGI was above 100 µM.

Turning to `COc1ccc(Nc2c(C#N)c3n(c4ccccc24)c2ccccc2[n+]3C)cc1OC`, the TGI was 17.8 µM.

Another test relates to K-562 leukemia. Put plainly: NCI-60 cell line screen, 48 h.
`CC(=O)OCC1OC(N2C(=O)/C(=C\c3ccc(Cl)cc3)C(N)=Nc3ccccc32)C(OC(C)=O)C(OC(C)=O)C1OC(C)=O` (stereo unspecified) had a TGI of 33.1 µM.

Compound `O=C(/C(=C(/Br)I)c1ccccc1)c1ccccc1` returned a TGI of 39.3 µM.

`COc1ncc(C=C(C#N)C#N)c(OC)n1` returned a TGI above 100 µM.

`COc1ccc(Nc2c(C#N)c3n(c4ccccc24)c2ccccc2[n+]3C)cc1OC` returned a TGI above 20 µM.

For a further test, the system named is KM12 colon. Put plainly: NCI-60 cell line screen, 48 h.
Turning to `CC(=O)OCC1OC(N2C(=O)/C(=C\c3ccc(Cl)cc3)C(N)=Nc3ccccc32)C(OC(C)=O)C(OC(C)=O)C1OC(C)=O` (stereo unspecified), the TGI worked out at 39.5 µM.

As for `O=C(/C(=C(/Br)I)c1ccccc1)c1ccccc1`, the TGI worked out at 38 µM.

Regarding `COc1ncc(C=C(C#N)C#N)c(OC)n1`, the TGI was above 100 µM.

On to `COc1ccc(Nc2c(C#N)c3n(c4ccccc24)c2ccccc2[n+]3C)cc1OC`, for which the TGI is 41.7 µM.

The next test has as its system LOX IMVI melanoma. Put plainly: NCI-60 cell line screen, 48 h.
The compound `CC(=O)OCC1OC(N2C(=O)/C(=C\c3ccc(Cl)cc3)C(N)=Nc3ccccc32)C(OC(C)=O)C(OC(C)=O)C1OC(C)=O` (stereo unspecified) came in with a TGI of 39.2 µM.

As for `O=C(/C(=C(/Br)I)c1ccccc1)c1ccccc1`, the TGI came to 32.3 µM.

As to `COc1ncc(C=C(C#N)C#N)c(OC)n1`, the TGI is above 100 µM.

`COc1ccc(Nc2c(C#N)c3n(c4ccccc24)c2ccccc2[n+]3C)cc1OC`: the TGI came to 7.23 µM.

Another test deals with M14 melanoma. Put plainly: NCI-60 cell line screen, 48 h.
With `CC(=O)OCC1OC(N2C(=O)/C(=C\c3ccc(Cl)cc3)C(N)=Nc3ccccc32)C(OC(C)=O)C(OC(C)=O)C1OC(C)=O` (stereo unspecified), the TGI amounted to 37.4 µM.

Turning to `O=C(/C(=C(/Br)I)c1ccccc1)c1ccccc1`, the TGI came to 31 µM.

Compound `COc1ncc(C=C(C#N)C#N)c(OC)n1` yielded a TGI of 40.9 µM.

As for `COc1ccc(Nc2c(C#N)c3n(c4ccccc24)c2ccccc2[n+]3C)cc1OC`, the TGI worked out at 8.01 µM.

For the next test, the system named is MALME-3M melanoma. Put plainly: NCI-60 cell line screen, 48 h.
On to `CC(=O)OCC1OC(N2C(=O)/C(=C\c3ccc(Cl)cc3)C(N)=Nc3ccccc32)C(OC(C)=O)C(OC(C)=O)C1OC(C)=O` (stereo unspecified), for which the TGI was determined as 68.4 µM.

In turn, `O=C(/C(=C(/Br)I)c1ccccc1)c1ccccc1` registered a TGI of 33.2 µM.

`COc1ncc(C=C(C#N)C#N)c(OC)n1` had a TGI above 100 µM.

In the case of `COc1ccc(Nc2c(C#N)c3n(c4ccccc24)c2ccccc2[n+]3C)cc1OC`, the TGI stood at 15.8 µM.

In another test the test system is MCF7 breast. Put plainly: NCI-60 cell line screen, 48 h.
As to `CC(=O)OCC1OC(N2C(=O)/C(=C\c3ccc(Cl)cc3)C(N)=Nc3ccccc32)C(OC(C)=O)C(OC(C)=O)C1OC(C)=O` (stereo unspecified), the TGI was 33.1 µM.

Turning to `O=C(/C(=C(/Br)I)c1ccccc1)c1ccccc1`, the TGI was found to be 94.4 µM.

`COc1ncc(C=C(C#N)C#N)c(OC)n1` yielded a TGI above 100 µM.

Compound `COc1ccc(Nc2c(C#N)c3n(c4ccccc24)c2ccccc2[n+]3C)cc1OC` displayed a TGI of 21.7 µM.

The next test relates to MDA-MB-231 breast. Put plainly: NCI-60 cell line screen, 48 h.
`CC(=O)OCC1OC(N2C(=O)/C(=C\c3ccc(Cl)cc3)C(N)=Nc3ccccc32)C(OC(C)=O)C(OC(C)=O)C1OC(C)=O` (stereo unspecified) yielded a TGI of 49.9 µM.

On to `O=C(/C(=C(/Br)I)c1ccccc1)c1ccccc1`, for which the TGI was 60.1 µM.

`COc1ncc(C=C(C#N)C#N)c(OC)n1` came in with a TGI above 100 µM.

On to `COc1ccc(Nc2c(C#N)c3n(c4ccccc24)c2ccccc2[n+]3C)cc1OC`, for which the TGI is 8.25 µM.

The test system of a further test is MDA-MB-435. Put plainly: NCI-60 cell line screen, 48 h.
The compound `CC(=O)OCC1OC(N2C(=O)/C(=C\c3ccc(Cl)cc3)C(N)=Nc3ccccc32)C(OC(C)=O)C(OC(C)=O)C1OC(C)=O` (stereo unspecified) registered a TGI of 30.7 µM.

For the compound `O=C(/C(=C(/Br)I)c1ccccc1)c1ccccc1`, the TGI was 82.6 µM.

On to `COc1ncc(C=C(C#N)C#N)c(OC)n1`, for which the TGI was found to be 78.8 µM.

Compound `COc1ccc(Nc2c(C#N)c3n(c4ccccc24)c2ccccc2[n+]3C)cc1OC` had a TGI of 14.8 µM.

Another test has as its system MDA-N. Put plainly: NCI-60 cell line screen, 48 h.
On to `CC(=O)OCC1OC(N2C(=O)/C(=C\c3ccc(Cl)cc3)C(N)=Nc3ccccc32)C(OC(C)=O)C(OC(C)=O)C1OC(C)=O` (stereo unspecified), for which the TGI worked out at 37.9 µM.

For `O=C(/C(=C(/Br)I)c1ccccc1)c1ccccc1`, the TGI turned out to be 81.9 µM.

As for `COc1ncc(C=C(C#N)C#N)c(OC)n1`, the TGI was determined as 92.6 µM.

As to `COc1ccc(Nc2c(C#N)c3n(c4ccccc24)c2ccccc2[n+]3C)cc1OC`, the TGI came out at 7.21 µM.

Another test concerns MOLT-4 leukemia. Put plainly: NCI-60 cell line screen, 48 h.
For `CC(=O)OCC1OC(N2C(=O)/C(=C\c3ccc(Cl)cc3)C(N)=Nc3ccccc32)C(OC(C)=O)C(OC(C)=O)C1OC(C)=O` (stereo unspecified), the TGI was found to be 27 µM.

The compound `O=C(/C(=C(/Br)I)c1ccccc1)c1ccccc1` displayed a TGI of 46.2 µM.

In turn, `COc1ncc(C=C(C#N)C#N)c(OC)n1` came in with a TGI above 100 µM.
